From patent US12729377B2, “RNAi agents and compositions for inhibiting expression of angiopoietin-like 3 (ANGPTL3), and methods of use” (Arrowhead Pharmaceuticals, Inc., priority 2017, dated 2026)
In the oligonucleotide strings, read from the 5' end, every base follows the letter of its sugar. An asterisk marks phosphorothioate; unmarked linkages are phosphodiester. Other units and linkages are bracketed, terminal groups are in braces. A string of capitals states the bases alone. {NAG37} = tridentate N-acetyl-galactosamine targeting ligand, structure (NAG37)s; [invAb] = inverted abasic unit; m = 2'-O-methyl; f = 2'-fluoro

Legend:
Format in all cases: in vivo, cynomolgus macaque (Macaca fascicularis)
ANGPTL3 protein = test: Example 9: serum ANGPTL3 protein by ELISA in cynomolgus monkeys; conditions: for Average ANGPTL3 Protein Normalized to Pre-Treatment: 2.0 mg/kg single SC injection day 1, cynos, n=3
Description: (§1) Additional ANGPTL3 RNAi agents were evaluated in cynomolgus monkeys. On day 1, cynomolgus macaque (Macaca fascicularis) primates (also referred to herein as “cynos”) were administered a single subcutaneous injection of 0.3 mL/kg (approximately 2-3 mL volume, depending on animal mass) containing 2.0 mg/kg of an ANGPTL3 RNAi agent, which included either AD05488, AD05743, AD05775, or AD05841, each formulated in saline. […] ANGPTL3 RNAi agents AD05488, AD05743, and AD05775 included nucleotide sequences designed to target position 304 of the ANGPTL3 gene. ANGPTL3 RNAi agent AD05841 included nucleotide sequences designed to target position 1035 of the ANGPTL3 gene.
(§2) Three (3) cynos in each group were tested (n=3). Blood samples were drawn and serum samples were analyzed on days −14 (predose), −7 (predose), 1 (pre-dose), 8, 15, 22, 29, and 35. Cynos were fasted overnight prior to each collection. ANGPTL3 protein levels in serum were measured by ELISA assay (R&D Systems), according to the manufacturer's recommendations. Triglycerides, total cholesterol, high-density lipoprotein (HDL), and low-density lipoprotein (LDL) in serum were measured on a Cobas® Integra 400 (Roche Diagnostics), according to the manufacturer's recommendations.
(§3) The ANGPTL3 protein levels, triglyceride levels, total cholesterol levels, HDL levels, and LDL levels for each animal were normalized. For normalization, the level of ANGPTL3 protein, triglyceride, HDL, and total cholesterol, respectively, for each animal at a time point, was divided by the average pre-treatment level of expression in that animal (in this case at days −14, −7, and 1) to determine the ratio of expression “normalized to pre-treatment.”

ANGPTL3 gene [1] = test: Example 9: serum triglycerides in cynomolgus monkeys; conditions: 2.0 mg/kg single SC injection day 1, cynos, n=3
Description: as §1, §2, §3

ANGPTL3 gene [2] = test: Example 9: serum total cholesterol in cynomolgus monkeys; conditions: 2.0 mg/kg single SC injection day 1, cynos, n=3
Description: as §1, §2, §3

ANGPTL3 gene [3] = test: Example 9: serum HDL in cynomolgus monkeys; conditions: 2.0 mg/kg single SC injection day 1, cynos, n=3
Description: as §1, §2, §3

ANGPTL3 gene [4] = test: Example 9: serum LDL in cynomolgus monkeys; conditions: 2.0 mg/kg single SC injection day 1, cynos, n=3
Description: as §1, §2, §3

Substance: AD05743: RNAi agent duplex: antisense AM07235-AS, sense AM07579-SS (antisense mU*fA*mC*fUmGfAmUfCmAfAmAfUmAfUmGfUmUfGmAfG*mC; sense {NAG37}*[invAb]*mGmCfUmCfAmAfCmAfUfAfUmUmUmGmAmUmCmAmGmUmA*[invAb])
- Average ANGPTL3 Protein Normalized to Pre-Treatment (ANGPTL3 protein; Day 8): 0.349
- Average ANGPTL3 Protein Normalized to Pre-Treatment (ANGPTL3 protein; Day 15): 0.316
- Average ANGPTL3 Protein Normalized to Pre-Treatment (ANGPTL3 protein; Day 22): 0.322
- Average ANGPTL3 Protein Normalized to Pre-Treatment (ANGPTL3 protein; Day 29): 0.381
- Average ANGPTL3 Protein Normalized to Pre-Treatment (ANGPTL3 protein; Day 35): 0.346
- reduction in ANGPTL3 protein compared to pre-treatment (ANGPTL3 protein; each of the measured time points, single 2.0 mg/kg subcutaneous, cynomolgus monkeys): reduction
- Average Triglycerides Normalized to Pre-Treatment (ANGPTL3 gene [1]; Day 8): 0.646
- Average Triglycerides Normalized to Pre-Treatment (ANGPTL3 gene [1]; Day 15): 0.708
- Average Triglycerides Normalized to Pre-Treatment (ANGPTL3 gene [1]; Day 22): 0.458
- Average Triglycerides Normalized to Pre-Treatment (ANGPTL3 gene [1]; Day 29): 0.479
- Average Triglycerides Normalized to Pre-Treatment (ANGPTL3 gene [1]; Day 35): 0.521
- Average Total Cholesterol Normalized to Pre-Treatment (ANGPTL3 gene [2]; Day 8): 0.925
- Average Total Cholesterol Normalized to Pre-Treatment (ANGPTL3 gene [2]; Day 15): 0.758
- Average Total Cholesterol Normalized to Pre-Treatment (ANGPTL3 gene [2]; Day 22): 0.768
- Average Total Cholesterol Normalized to Pre-Treatment (ANGPTL3 gene [2]; Day 29): 0.807
- Average Total Cholesterol Normalized to Pre-Treatment (ANGPTL3 gene [2]; Day 35): 0.752
- Average HDL Normalized to Pre-Treatment (ANGPTL3 gene [3]; Day 8): 0.849
- Average HDL Normalized to Pre-Treatment (ANGPTL3 gene [3]; Day 15): 0.797
- Average HDL Normalized to Pre-Treatment (ANGPTL3 gene [3]; Day 22): 0.666
- Average HDL Normalized to Pre-Treatment (ANGPTL3 gene [3]; Day 29): 0.757
- Average HDL Normalized to Pre-Treatment (ANGPTL3 gene [3]; Day 35): 0.677
- Average LDL Normalized to Pre-Treatment (ANGPTL3 gene [4]; Day 8): 1.055
- Average LDL Normalized to Pre-Treatment (ANGPTL3 gene [4]; Day 15): 0.825
- Average LDL Normalized to Pre-Treatment (ANGPTL3 gene [4]; Day 22): 0.986
- Average LDL Normalized to Pre-Treatment (ANGPTL3 gene [4]; Day 29): 0.941
- Average LDL Normalized to Pre-Treatment (ANGPTL3 gene [4]; Day 35): 0.911
